Test results reported in BindingDB's records for doi:10.1158/1535-7163.MCT-05-0442 (Celera Genomics, 2006).

The compounds below were run against Histone deacetylase 1 (Homo sapiens, UniProt Q13547) (assay: HDAC Inhibition Assay). Conditions: pH 7.4; 22 °C.
Method: HDAC activity was measured using a continuous trypsin-coupled assay. For inhibitor characterization, measurements were done using 96-well assay plates. Enzyme was mixed with inhibitor at various concentrations and allowed to incubate for 15 minutes. […] Reactions were monitored in a fluorescence plate reader. […] The increase in fluorescence with time was used as the measure of the reaction rate. Inhibition constants Ki(app) were obtained using the program BatchKi.

Histone deacetylase 1, sequence (Q13547 whole entry): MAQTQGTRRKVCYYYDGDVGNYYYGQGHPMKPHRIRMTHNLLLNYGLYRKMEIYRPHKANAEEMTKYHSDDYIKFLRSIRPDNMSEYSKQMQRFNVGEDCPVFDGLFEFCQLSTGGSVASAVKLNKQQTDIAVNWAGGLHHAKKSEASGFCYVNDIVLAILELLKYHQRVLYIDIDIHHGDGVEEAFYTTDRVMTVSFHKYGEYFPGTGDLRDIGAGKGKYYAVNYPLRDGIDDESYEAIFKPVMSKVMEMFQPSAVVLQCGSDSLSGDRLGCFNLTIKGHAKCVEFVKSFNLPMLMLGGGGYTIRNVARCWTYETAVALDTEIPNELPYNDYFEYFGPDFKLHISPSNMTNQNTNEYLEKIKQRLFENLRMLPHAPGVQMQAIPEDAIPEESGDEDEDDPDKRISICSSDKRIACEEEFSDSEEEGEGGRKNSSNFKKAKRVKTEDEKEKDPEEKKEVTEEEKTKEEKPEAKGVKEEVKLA

Ki	Compound
43 nM	O=C(NO)c1ccc(OCCNC(=O)c2ccccc2)cc1 [N-hydroxy-4-[2-(phenylformamido)ethoxy]benzamide]
4 nM	O=C(NO)c1ccc(OCCNC(=O)c2cc3ccccc3o2)cc1 [N-{2-[4-(hydroxycarbamoyl)phenoxy]ethyl}-1-benzofuran-2-carboxamide]
> 50000 nM	CN(C)Cc1c(C(=O)NCCOc2ccc(C(=O)O)cc2)oc2ccccc12 [4-[2-({3-[(dimethylamino)methyl]-1-benzofuran-2-yl}formamido)ethoxy]benzoic acid]
6 nM	O=C(NO)c1ccc(OCCNC(=O)c2ccc3ccccc3c2)cc1 [N-{2-[4-(hydroxycarbamoyl)phenoxy]ethyl}naphthalene-2-carboxamide]
